Key:
tumor = assay: Anti-cancer activity of (L) versus (D) conformation compounds in animal models and compassionate use (summary statement); format: in vivo; details: animal models and compassionate use treatment of human subjects
From the text: However, in contrast to D-penicillamine, the L-penicillamine stereoisomer is toxic, and has not been approved as a drug. […] Moreover, when the inventors compared the relative activities, the (L) conformation compounds of this disclosure appeared to be at least 2× as active as the corresponding racemate, due to the improved stereospecificity in the enzymatic catalysis of 5-oxoproline by 5 oxoprolinase.

[1] = LD50 toxicity study on Balb C mice; format: in vivo; details: mouse, in vivo
Protocol: (§1) LD50 data was measured, and exemplary gamma-glutamyl cycle inhibitor's toxicity study was conducted on Balb C Mice. A conjugate of L-penicillamine and methyl glyoxal (MGPA) was adminstered at about 4500 mg/kg ip, 5000 mg/kg oral. A conjugate of L-penicillamine and para-methoxyphenyl (PMPA) was administered at 5250 mg/kg ip, 5500 mg/kg oral; and a conjugate of L-penicillamine and citronellal (CNPA) was administered at 3250 mg/kg ip, 4500 mg/kg oral.

B6C3F1 Mice = assay: LD50 determination in B6C3F1 mice; format: in vivo; set-up: 1/10 LD50: unit: mg/kg/inj
From the text: Summary of LD50 Determination with a conjugate of L-penicillamine and salicylaldehyde (L-SAPA), a conjugate of L-penicillamine and benzaldehyde (L-BAPA), a conjugate of L-penicillamine and pyruvic aldehyde (L-PAPA) and a conjugate of L-penicillamine and glutaric dialdehyde (L-GAPA) in B6C3F1 Mice.

[2] = test system: patients with advanced prostate cancer; assay: Compassionate use treatment of patients with advanced prostate cancer; format: in vivo, human
Protocol: Two patients with advanced prostate cancer were treated under a compassionate use program with an exemplary GGCI
Racemic BA-GGCI was administered to two human subjects who were receiving hormonal therapy for 12 and 14 months respectively.
At the onset of the GGCI treatment, both patients were bedridden with PSA (Prostate Specific Antigen) values of 340 and 180 ng/mL respectively. Both subjects presented with multiple bone metastases, and agonizing pains. The GGCI treatment protocol comprised 600 mg of GGCI capsule 3 times/day (formulated for human based on less then 5% of the LD50 toxicity on mice).

lung CA CRL5891 = assay: Survival of nude mice inoculated with human lung cancer; format: in vivo, athymic nude mice; details: for survival of treated group: nude male mice, 400 rads, lung CA CRL5891, 100 mg/kg I.P. every day, six days a week, followed up for 120 days, control: eight of ten died
Protocol: In order to examine survival of athymic nude mice inoculated intravenously with tumors, one group of the inoculated mice was treated with racemic BA-GGCI, and a second group of the inoculated mice were treated with placebo, and the effects of treatment with BA-GGCI and placebo were compared.
Two subgroups of nude male mice where examined: A control group and an experimental group. The groups included twenty athymic nude mice (ten control and ten experimental) subjects, each irradiated with 400 rads of radiation and inoculated with lung CA CRL5891 at 3×10,000,000 cells per mouse. Interventional treatment was identical to the first study as above.
The subjects were followed up for 120 days. In the Control group, eight of ten subjects died. Two of the surviving mice developed a large tumor.

Human Melanoma cells 624 = assay: Survival of nude mice inoculated with human melanoma; format: in vivo, athymic nude mice; details: for survival of treated group: nude mice, 400 rads, Human Melanoma cells 624, 100 mg/kg I.P. every day, six days a week, followed up for 120 days, control: ten out of ten died
Protocol: In order to examine the survival rate of athymic nude mice, inoculated intravenously with tumors, one group of the inoculated mice was treated with BA-GGCI, and a second group of the inoculated mice were treated with placebo, and the effects of treatment with BA-GGCI and placebo were compared.
Two subgroups of nude mice were examined: a control group and an experimental group. The groups included a total of twenty athymic nude mice (ten control and ten experimental), each irradiated with 400 rads of radiation and inoculated with Human Melanoma cells 624 at 3.0×10,000,000 cells per mouse. Treatment of the experimental group with racemic BA-GGCI commenced at 24 hours after the inoculation. The treatment was administered intraperitoneally (I.P.) at a dose of 100 mg/kg in 2 cc of saline every day, six days a week. The control group received placebo (2 cc saline IP), every day, six days a week.
The subjects were followed up for 120 days.

CD1 mice = assay: Sub-acute (4 weeks) per os (via food) toxicity to mice; format: in vivo
From the text: Sample: L-Thiazolidine-di-methyl-carboxylic acid: “L-BAPA” powder was mixed in the food (pellets).
Subjects were examined for: Sub-acute (4 weeks) per os (via food) toxicity of L-BAPA to mice.
Forty females and forty male CD1 mice, 8-10 weeks old, were housed 5 per cage (milipore filtered top cages), half of them used as controls, receiving normal mouse diet (prepared at the breeding center food plant). The other half were the experimental group and received same food composition in which 0.6 g L-Thiazolidine-di-methyl-carboxylic acid in kg food was mixed and pelleted in smaller pellet machine. This food contains 12% humidity, as compared with 6% humidity of the control diet. The animals were fed ad libitum. All animals were weighed weekly and food consumption was recorded. Possible clinical or pharmaceutical effects were checked daily. After 4 weeks, the mice were put into metabolic cages for 24 hours, their urine was collected, and then the animals were bled before sacrificing. The blood was analyzed and bone marrow smears were prepared for differential count.
The reason for putting […] in a group was to assure enough blood and urine for analysis, so all the blood clinical chemistry and urinalysis are of a pool of 2 mice each. All other results are individual results, performed randomly on one of each 2 mouse group.
The following organs were examined histologically: adrenals, brain, eye, gonads, heart, intestines (colon, caecum, duodenum, ileum, rectum) kidneys, liver, lungs, lymph nodes (mesenterial and inguinal) mammary gland, mediastinum, esophagus, pancreas, pituitary, salivary gland, skeletal muscle, skin, spinal cord, spleen, stomach, thyroid, urinary bladder and uterus. The organs were fixed in Bouin's solution and stained with hematoxylin-eosin-phosphomolybdic-acid light green stain. Weights for the adrenals, gonads, kidneys, liver and pituitary were recorded and the ratio organ weight/body weight was calculated.
The following lab studies were performed:
Hematology: Hemoglobin, hematocrit, erythrocyte count, leukocyte count.
Clinical chemistry: alkaline phosphatase, blood urea nitrogen, serum glutamic, pyruvic transaminase, blood sugar.
Urinalysis: appearance occult blood, protein Ph, bilirubin, ketones, glucose, nitrites, urobilinogen.

[3] = test system: human prostate tumor cell line; assay: Nude mouse model inoculated with human prostate tumor cell line; racemic, L- and D-GGCI compared; format: in vivo, nude mice
Protocol: Relative activities of the exemplary enantiomeric GGCI compounds of this invention were compared. Conjugates of benzaldehyde, salicylaldehyde and para-methoxybenzaldehyde were prepared, using either enantiomeric L- or D-penicillamine as the second reactant. The efficacy of racemic BA-GGCI, racemic SA-GGCI and racemic PMB-GGCI in the treatment of human prostate cancer was tested using the nude mouse model as in Example 2, except that the nude mice were inoculated intravenously with a human prostate tumor cell line. One group of the inoculated mice was treated with the racemic BA-GGCI and a control group of the inoculated mice was treated with placebo, and the effects of treatment with GGCI and placebo were compared. Response to treatment was monitored by changes in [PSA].
The exemplary L- and D-enantiomer BA-GGCIs were prepared in accordance with synthetic scheme of FIG. 1 using L-penicillamine.

Balb C Mice = assay: LD50 toxicity study on Balb C mice; format: in vivo
Protocol: as §1

[4] = CD1 mice, 0.6 g in kg food, 4 weeks
[5] = CD1 mice, 0.6 g in kg food, 4 weeks, versus control
[6] = subject #1, 600 mg capsule 3 times/day
[7] = subject #2, 600 mg capsule 3 times/day

## COc1ccc(C2N[C@@H](C(=O)O)C(C)(C)S2)cc1 (stereo partly drawn) [PMPA]
tumor
  anti-tumor / anti-cancer activity: potent anti-tumor activity
[1]; 5250 mg/kg, ip
  LD50: 5250 mg/kg
[1]; 5500 mg/kg, oral
  LD50: 5500 mg/kg

## CC1(C)SC(CCCC=O)N[C@H]1C(=O)O (stereo partly drawn) [L-GAPA]
B6C3F1 Mice; Schedule Day 1, Route ip
  1/10 LD50: 375
  Calculated LD50 mg/kg/inj.: 3749 mg/kg/inj.
B6C3F1 Mice; Schedule Day 1, Route oral
  1/10 LD50: 500
  Calculated LD50 mg/kg/inj.: >5000 mg/kg/inj.
B6C3F1 Mice; Schedule Day 1-5, Route ip
  1/10 LD50: 169
  Calculated LD50 mg/kg/inj.: 1690 mg/kg/inj.
B6C3F1 Mice; Schedule Day 1-5, Route oral
  1/10 LD50: 500
  Calculated LD50 mg/kg/inj.: >5000 mg/kg/inj.

## CC1(C)SC(c2ccccc2O)NC1C(=O)O (racemic) [racemic SA-GGCI]
[2]; human patients, compared with BA-GGCI
  subjective well-being of patients: subjectively felt better than patients to whom BA-GGCI was administered
[2]; human patients, compared with BA-GGCI treatment
  overall treatment result in patients: results similar to those obtained with B-GGCI treatment
Lung CA CRL5891
  survival of treated group: results similar to those obtained with racemic BA-GGCI
Human Melanoma cells 624
  survival of treated group: results similar to those obtained with racemic BA-GGCI

## CC1(C)SC(c2ccccc2)N[C@H]1C(=O)O (stereo partly drawn) [L-BAPA]
B6C3F1 Mice; Schedule Day 1, Route ip
  1/10 LD50: 88.4
  Calculated LD50 mg/kg/inj.: 884 mg/kg/inj.
B6C3F1 Mice; Schedule Day 1, Route oral
  1/10 LD50: 355
  Calculated LD50 mg/kg/inj.: 3553 mg/kg/inj.
B6C3F1 Mice; Schedule Day 1-5, Route ip
  1/10 LD50: 88.4
  Calculated LD50 mg/kg/inj.: 884 mg/kg/inj.
B6C3F1 Mice; Schedule Day 1-5, Route oral
  1/10 LD50: 216
  Calculated LD50 mg/kg/inj.: 2158 mg/kg/inj.
CD1 mice; CD1 mice, 0.6 g in kg food ad libitum, 4 weeks
  clinical symptoms, daily observation: no clinical or other effect could be observed
CD1 mice; [4]
  Blood cell analysis and differential count: All values are within the normal range and no significant difference between the control and the experimental groups is noted
  Bone marrow differential count: All values are within the normal range and no significant difference between the control and the experimental groups is noted
CD1 mice; CD1 mice, 0.6 g in kg food, 4 weeks, 10 male and 10 females per group, thirty-one organs
  Histopathology: No other pathological or other changes could be observed
CD1 mice; CD1 mice, 0.6 g in kg food, 4 weeks, experimental food 12% humidity versus 6% control
  Food consumption: more L-BAPA containing experimental food was consumed by the experimental group then normal food by the control
CD1 mice; CD1 mice, 0.6 g in kg food, 4 weeks, pool of 2 mice each
  Blood clinical chemistry and urinalysis: All values are within the normal range and no significant difference between the control and the experimental groups is noted
CD1 mice; [5]
  Body weight: no significant difference between the experimental group and the control group
  Organ weight and ratio organ/body weight: No significant difference between the experimental and the control group is noted
CD1 mice; mixed in the food (0.6 g in kg food), fed ad libitum for 4 weeks
  clinical or pathological changes (conclusion): does not produce any clinical or pathological changes to mice
[3]; (L) compound versus racemic mixture
  activity compared to the corresponding racemate: at least twice as active as the corresponding racemic mixture

## CC1(C)SC(c2ccccc2)NC1C(=O)O (racemic) [racemic BA-GGCI]
[2]; [6]
  PSA value after treatment (dropped from 340): 18 units
  time to return to regular activities: within a month
  time until pain level subsided: ≤ 10 days
[2]; subject #1, 600 mg capsule 3 times/day, later
  PSA level after continued drop: 5 units
[2]; subject #1, before they eventually passed away
  time subject felt normal: 28 months
[2]; subject #1, multiple bone metastases at onset
  bone CAT scan: substantial remission
[2]; subject #2
  survival after initiation of the treatment (still alive, feeling well): ≥ 36 months
[2]; [7]
  PSA after treatment (180 ng/mL at onset): 16 units
  time to return to normal activities: 2-3 weeks
  time until pains subsided: 7 days
Lung CA CRL5891; lung CA CRL5891 nude mice, 100 mg/kg I.P., 120 days
  detectable tumor in treated group: none with detectable tumor
Lung CA CRL5891
  survival of treated group: all mice remained alive
Human Melanoma cells 624; Human Melanoma cells 624 nude mice, 100 mg/kg I.P., after stopping the treatment
  tumor development in treated group: Two of the subjects developed small tumors after stopping the treatment
Human Melanoma cells 624
  survival of treated group: ten out of ten subjects in the treated group were all alive
[3]; nude mice inoculated intravenously with human prostate tumor cell line, treatment as in Example 2, response monitored by [PSA]
  survival rate versus control group: significantly higher survival rate than the control group

## COc1ccc(C2NC(C(=O)O)C(C)(C)S2)cc1 (stereo not drawn) [(D) stereoisomer]
tumor
  anti-tumor / anti-cancer activity: no activity

## CC(C)=CCCC(C)CC1NC(C(=O)O)C(C)(C)S1 (stereo not drawn) [CNPA]
Balb C Mice; ip
  LD50: 3250 mg/kg
Balb C Mice; oral
  LD50: 4500 mg/kg

## COc1ccc(C2N[C@@H](C(=O)O)C(C)(C)S2)cc1 (mixture of isomers) [racemic PMB-GGCI, 2-imino-3-p-methoxybenzyl-4 sulfanyl-5 dimethyl 1-carboxylic acid]
Lung CA CRL5891
  survival of treated group: results similar to those obtained with racemic BA-GGCI
Human Melanoma cells 624
  survival of treated group: results similar to those obtained with racemic BA-GGCI

## CC(=O)C1N[C@@H](C(=O)O)C(C)(C)S1 (stereo partly drawn) [L-PAPA]
B6C3F1 Mice; Schedule Day 1, Route ip
  1/10 LD50: 500
  Calculated LD50 mg/kg/inj.: >5000 mg/kg/inj.
B6C3F1 Mice; Schedule Day 1, Route oral
  1/10 LD50: 500
  Calculated LD50 mg/kg/inj.: >5000 mg/kg/inj.
B6C3F1 Mice; Schedule Day 1-5, Route ip
  1/10 LD50: 277
  Calculated LD50 mg/kg/inj.: 2771 mg/kg/inj.
B6C3F1 Mice; Schedule Day 1-5, Route oral
  1/10 LD50: 500
  Calculated LD50 mg/kg/inj.: >5000 mg/kg/inj.

## CC(=O)C1NC(C(=O)O)C(C)(C)S1 (stereo not drawn) [MGPA]
Balb C Mice; ip
  LD50: about 4500 mg/kg
Balb C Mice; oral
  LD50: 5000 mg/kg

— patent US12686667B2, “Methods and compositions for gamma-glutamyl cycle modulation” (CANCER RESEARCH TECHNOLOGIES LLC, priority 2013, dated 2026)
